Laboratory results from patent US12209102B2, “Heterocyclic compounds and uses thereof” (Kumquat Biosciences Inc., priority 2022, dated 2025).

Experiments:
Assay type in all cases: biochemical
K-Ras G12S = target: T1, K-Ras G12S (Homo sapiens, UniProt P01116, G12S); assay: HTRF resonance energy transfer assay, K-Ras G12S / SOS1 interaction; details: HTRF assay of Example 5; read-out: IC50 against K-Ras G12S
T1 construct: made in house; host or cells: E. coli BL21 (DE3)
How it was run: (§1)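 Read-out: HTRF 665/620 nm ratio (excitation 337 nm) after roughly 10 min or longer incubation, used to derive IC50. Donor anti-GST-Eu on GST-K-Ras; acceptor anti-6His-XL665 on His-hSOS1. Duplicate dose series from 10 μM down to 0.01 μM.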

K-Ras G12V = target: T2, K-Ras G12V (Homo sapiens, UniProt P01116, G12V); assay: HTRF resonance energy transfer assay, K-Ras G12V / SOS1 interaction; details: HTRF assay of Example 5; read-out: IC50 against K-Ras G12V
T2 construct: made in house; host or cells: E. coli BL21 (DE3)
How it was run: as §1

K-Ras WT = target: T3, K-Ras WT (Homo sapiens, UniProt P01116); assay: HTRF resonance energy transfer assay, K-Ras WT / SOS1 interaction; details: HTRF assay of Example 5; read-out: IC50 against K-Ras WT
T3 construct: made in house; host or cells: E. coli BL21 (DE3)
How it was run: as §1

K-Ras G12D = target: T4, K-Ras G12D (Homo sapiens, UniProt P01116, G12D); assay: HTRF resonance energy transfer assay, K-Ras G12D / SOS1 interaction; details: HTRF assay of Example 5; read-out: IC50 against K-Ras G12D
T4 construct: made in house; host or cells: E. coli BL21 (DE3)
How it was run: as §1

Measured: IC50

T2 sequence (P01116 1-188 isoform P01116-2 G12V): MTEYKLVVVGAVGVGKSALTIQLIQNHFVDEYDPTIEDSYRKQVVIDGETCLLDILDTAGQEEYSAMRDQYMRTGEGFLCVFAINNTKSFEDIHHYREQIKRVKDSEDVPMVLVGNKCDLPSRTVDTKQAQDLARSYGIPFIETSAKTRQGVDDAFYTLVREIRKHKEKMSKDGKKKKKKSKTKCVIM
T4 sequence (P01116 1-188 isoform P01116-2 G12D): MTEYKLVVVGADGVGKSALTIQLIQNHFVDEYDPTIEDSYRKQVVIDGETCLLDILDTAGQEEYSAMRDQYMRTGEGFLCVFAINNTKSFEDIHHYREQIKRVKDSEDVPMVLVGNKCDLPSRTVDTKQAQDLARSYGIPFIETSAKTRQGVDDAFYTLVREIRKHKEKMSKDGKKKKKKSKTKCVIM
T3 sequence (P01116 1-188 isoform P01116-2): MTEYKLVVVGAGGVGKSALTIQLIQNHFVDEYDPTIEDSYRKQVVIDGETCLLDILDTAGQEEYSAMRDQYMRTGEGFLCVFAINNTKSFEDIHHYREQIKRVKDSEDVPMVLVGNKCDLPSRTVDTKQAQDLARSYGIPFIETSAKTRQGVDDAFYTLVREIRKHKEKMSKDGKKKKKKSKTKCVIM
T1 sequence (P01116 1-188 isoform P01116-2 G12S): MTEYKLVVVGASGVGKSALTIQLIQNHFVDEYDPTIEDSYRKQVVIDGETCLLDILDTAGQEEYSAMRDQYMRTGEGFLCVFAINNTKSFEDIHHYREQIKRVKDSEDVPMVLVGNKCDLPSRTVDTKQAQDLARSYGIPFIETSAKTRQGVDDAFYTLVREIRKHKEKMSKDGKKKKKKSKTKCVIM

CC(=O)C1COc2c(Cl)c(-c3ccc(F)c4sc(N)c(C#N)c34)c(F)c3nc(OC[C@@]45CCCN4C[C@H](F)C5)nc(c23)N1CC(F)F (stereo partly drawn) [Compound 981, 4-(5-acetyl-8-chloro-4-(2,2-difluoroethyl)-10-fluoro-2-(((2R,7aS)-2-fluorotetrahydro-1H-pyrrolizin-7a(5H)-yl)methoxy)-5,6-dihydro-4H-[1,4]oxazepino[5,6,7-de]quinazolin-9-yl)-2-amino-7-fluorobenzo[b]thiophene-3-carbonitrile]
< 100 nM: all assays above

N#Cc1c(N)sc2c(F)ccc(-c3c(Cl)c4c5c(nc(OC[C@@]67CCCN6C[C@H](F)C7)nc5c3F)N(CC(F)F)C(C3CC3(F)F)CO4)c12 (stereo partly drawn) [Compound 987, 2-amino-4-(8-chloro-5-(2,2-difluorocyclopropyl)-4-(2,2-difluoroethyl)-10-fluoro-2-(((2R,7aS)-2-fluorotetrahydro-1H-pyrrolizin-7a(5H)-yl)methoxy)-5,6-dihydro-4H-[1,4]oxazepino[5,6,7-de]quinazolin-9-yl)-7-fluorobenzo[b]thiophene-3-carbonitrile]
< 100 nM: all assays above

Cn1nc(NC(=O)C2CN2)cc1CN1CCOc2c(Cl)c(-c3ccc(F)c4sc(N)c(C#N)c34)c(F)c3nc(OC[C@@]45CCCN4C[C@H](F)C5)nc1c23 (stereo partly drawn) [Compound 999, N-(5-((9-(2-amino-3-cyano-7-fluorobenzo[b]thiophen-4-yl)-8-chloro-10-fluoro-2-(((2R,7aS)-2-fluorotetrahydro-1H-pyrrolizin-7a(5H)-yl)methoxy)-5,6-dihydro-4H-[1,4]oxazepino[5,6,7-de]quinazolin-4-yl)methyl)-1-methyl-1H-pyrazol-3-yl)aziridine-2-carboxamide]
< 100 nM: all assays above

C[C@H]1C[C@@H](N2CCOc3c(Cl)c(-c4ccc(F)c5sc(N)c(C#N)c45)c(F)c4nc(OC[C@@]56CCCN5C[C@H](F)C6)nc2c34)CN1 [Compound 1010, 2-amino-4-(8-chloro-10-fluoro-2-(((2R,7aS)-2-fluorotetrahydro-1H-pyrrolizin-7a(5H)-yl)methoxy)-4-((3R,5S)-5-methylpyrrolidin-3-yl)-5,6-dihydro-4H-[1,4]oxazepino[5,6,7-de]quinazolin-9-yl)-7-fluorobenzo[b]thiophene-3-carbonitrile]
< 100 nM: all assays above

CN1c2nc(OC[C@@]34CCCN3C[C@H](F)C4)nc3c(F)c(-c4ccc(F)c5sc(N)c(C#N)c45)c(Cl)c(c23)OC[C@@H]1CNC(=O)C(F)F [Compound 1018, N-(((5S)-9-(2-amino-3-cyano-7-fluorobenzo[b]thiophen-4-yl)-8-chloro-10-fluoro-2-(((2R,7aS)-2-fluorotetrahydro-1H-pyrrolizin-7a(5H)-yl)methoxy)-4-methyl-5,6-dihydro-4H-[1,4]oxazepino[5,6,7-de]quinazolin-5-yl)methyl)-2,2-difluoroacetamide]
< 100 nM: all assays above

C#Cc1c(F)ccc2cc(O)cc(-c3nc4c5c(nc(OC[C@@]67CCCN6C[C@H](F)C7)nc5c3F)N(C3CCN(C=O)C3)CCO4)c12 (stereo partly drawn) [Compound 1019, 3-(5-(8-ethynyl-7-fluoro-3-hydroxynaphthalen-1-yl)-4-fluoro-2-(((2R,7aS)-2-fluorotetrahydro-1H-pyrrolizin-7a(5H)-yl)methoxy)-8,9-dihydro-10H-7-oxa-1,3,6,10-tetraazacyclohepta[de]naphthalen-10-yl)pyrrolidine-1-carbaldehyde]
< 100 nM: all assays above

N#Cc1c(N)sc2c(F)ccc(-c3c(Cl)c4c5c(nc(OC[C@@]67CCCN6C[C@H](F)C7)nc5c3F)N(Cc3ccn[nH]3)CCO4)c12 [Compound 1023, 4-(4-((1H-pyrazol-5-yl)methyl)-8-chloro-10-fluoro-2-(((2R,7aS)-2-fluorotetrahydro-1H-pyrrolizin-7a(5H)-yl)methoxy)-5,6-dihydro-4H-[1,4]oxazepino[5,6,7-de]quinazolin-9-yl)-2-amino-7-fluorobenzo[b]thiophene-3-carbonitrile]
< 100 nM: all assays above

N#CCC1COc2c(Cl)c(-c3ccc(F)c4sc(N)c(C#N)c34)c(F)c3nc(OC[C@@]45CCCN4C[C@H](F)C5)nc(c23)N1CCCN (stereo partly drawn) [Compound 1029, 2-amino-4-(4-(3-aminopropyl)-8-chloro-5-(cyanomethyl)-10-fluoro-2-(((2R,7aS)-2-fluorotetrahydro-1H-pyrrolizin-7a(5H)-yl)methoxy)-5,6-dihydro-4H-[1,4]oxazepino[5,6,7-de]quinazolin-9-yl)-7-fluorobenzo[b]thiophene-3-carbonitrile]
< 100 nM: all assays above

C/C=C\[C@H]1COc2c(Cl)c(-c3ccc(F)c4sc(N)c(C#N)c34)c(F)c3nc(OC[C@@]45CCCN4C[C@H](F)C5)nc(c23)N1CC(F)F [Compound 1032, 2-amino-4-((5S)-8-chloro-4-(2,2-difluoroethyl)-10-fluoro-2-(((2R,7aS)-2-fluorotetrahydro-1H-pyrrolizin-7a(5H)-yl)methoxy)-5-((Z)-prop-1-en-1-yl)-5,6-dihydro-4H-[1,4]oxazepino[5,6,7-de]quinazolin-9-yl)-7-fluorobenzo[b]thiophene-3-carbonitrile]
< 100 nM: all assays above

N#Cc1c(N)sc2c(F)ccc(-c3c(Cl)c4c5c(nc(OC[C@@]67CCCN6C[C@H](F)C7)nc5c3F)N(C3CCCNCC3)CCO4)c12 (stereo partly drawn) [Compound 1059, 2-amino-4-(4-(azepan-4-yl)-8-chloro-10-fluoro-2-(((2R,7aS)-2-fluorotetrahydro-1H-pyrrolizin-7a(5H)-yl)methoxy)-5,6-dihydro-4H-[1,4]oxazepino[5,6,7-de]quinazolin-9-yl)-7-fluorobenzo[b]thiophene-3-carbonitrile]
< 100 nM: all assays above

C#Cc1c(F)ccc2cc(O)cc(-c3nc4c5c(nc(OC[C@@]67CCCN6C[C@H](F)C7)nc5c3F)N(C3CCCN(C=O)C3)CCO4)c12 (stereo partly drawn) [Compound 1066, 3-(5-(8-ethynyl-7-fluoro-3-hydroxynaphthalen-1-yl)-4-fluoro-2-(((2R,7aS)-2-fluorotetrahydro-1H-pyrrolizin-7a(5H)-yl)methoxy)-8,9-dihydro-10H-7-oxa-1,3,6,10-tetraazacyclohepta[de]naphthalen-10-yl)piperidine-1-carbaldehyde]
< 100 nM: all assays above

CC1(O)CCCC(N2CCOc3c(Cl)c(-c4ccc(F)c5sc(N)c(C#N)c45)c(F)c4nc(OC[C@@]56CCCN5C[C@H](F)C6)nc2c34)C1 (stereo partly drawn) [Compound 1069, 2-amino-4-(8-chloro-10-fluoro-2-(((2R,7aS)-2-fluorotetrahydro-1H-pyrrolizin-7a(5H)-yl)methoxy)-4-(3-hydroxy-3-methylcyclohexyl)-5,6-dihydro-4H-[1,4]oxazepino[5,6,7-de]quinazolin-9-yl)-7-fluorobenzo[b]thiophene-3-carbonitrile]
< 100 nM: all assays above

C#C[C@H]1COc2c(Cl)c(-c3ccc(F)c4sc(N)c(C#N)c34)c(F)c3nc(OC[C@@]45CCCN4C[C@H](F)C5)nc(c23)N1CC(F)F [Compound 1075, 2-amino-4-((5S)-8-chloro-4-(2,2-difluoroethyl)-5-ethynyl-10-fluoro-2-(((2R,7aS)-2-fluorotetrahydro-1H-pyrrolizin-7a(5H)-yl)methoxy)-5,6-dihydro-4H-[1,4]oxazepino[5,6,7-de]quinazolin-9-yl)-7-fluorobenzo[b]thiophene-3-carbonitrile]
< 100 nM: all assays above

CS(=O)(=O)N1CC1C(=O)NCCN1CCOc2c(Cl)c(-c3ccc(F)c4sc(N)c(C#N)c34)c(F)c3nc(OC[C@@]45CCCN4C[C@H](F)C5)nc1c23 (stereo partly drawn) [Compound 1077, N-(2-(9-(2-amino-3-cyano-7-fluorobenzo[b]thiophen-4-yl)-8-chloro-10-fluoro-2-(((2R,7aS)-2-fluorotetrahydro-1H-pyrrolizin-7a(5H)-yl)methoxy)-5,6-dihydro-4H-[1,4]oxazepino[5,6,7-de]quinazolin-4-yl)ethyl)-1-(methylsulfonyl)aziridine-2-carboxamide]
< 100 nM: all assays above

N#Cc1c(N)sc2c(F)ccc(-c3c(Cl)c4c5c(nc(OC[C@@]67CCCN6C[C@H](F)C7)nc5c3F)N(CC(F)F)[C@@H](C3CC3C#N)CO4)c12 (stereo partly drawn) [Compound 1078, 2-amino-4-((5S)-8-chloro-5-(2-cyanocyclopropyl)-4-(2,2-difluoroethyl)-10-fluoro-2-(((2R,7aS)-2-fluorotetrahydro-1H-pyrrolizin-7a(5H)-yl)methoxy)-5,6-dihydro-4H-[1,4]oxazepino[5,6,7-de]quinazolin-9-yl)-7-fluorobenzo[b]thiophene-3-carbonitrile]
< 100 nM: all assays above
